The text below walks through data of publication PMC6792352, “Limited Chemical Structural Diversity Found to Modulate Thyroid Hormone Receptor in the Tox21 Chemical Library” (Environmental Health Perspectives, 2019).

Counter-ions that a name gives are not always drawn.

One data set can be described thus: in vitro. As to conditions: rat, gh3-tre-luc cells, AC50 (uM) modified / 1000.
One may read the CC50 as the concentration that lowers cell viability or growth by half. A low value points to greater toxicity to the cells. `COC(=O)CCCC(=O)O` [5-Methoxy-5-oxopentanoic acid]: the CC50 at 24 h was over 90 µM.

`COc1c2ccoc2cc2oc(=O)ccc12` [5-Methoxypsoralen] yielded a CC50 at 24 h of over 90 µM.

`CC(=O)C(=O)CC(C)C` [5-Methyl-2,3-hexanedione] had a CC50 at 24 h of over 90 µM.

`Cc1ccc(C(=O)O)o1` [5-Methyl-2-furancarboxylic acid] displayed a CC50 at 24 h of over 90 µM. The same measure, in the same setting: with `CC(=O)CCC(C)C` [5-Methyl-2-hexanone] the figure was over 90 µM; with `Cc1ccc([N+](=O)[O-])c(N)c1` [5-Methyl-2-nitroaniline], over 90 µM. On the same count and under the same terms, for `CC(C)C/C=C(/C=O)c1ccccc1` [5-Methyl-2-phenyl-2-hexenal] the value was 64.6 µM; for `Cc1ccc(C=O)s1` [5-Methyl-2-thiophenecarboxaldehyde], over 90 µM. Still for that read-out and setting: for `Cc1c[nH]c(=S)[nH]c1=O` [5-Methyl-2-thiouracil] the value was over 90 µM; for `Cc1cc(N)no1` [5-Methyl-3-isoxazolamine], over 100 µM. `CC(C)CCCC(=O)O` [5-Methylhexanoic acid] showed a CC50 at 24 h of over 90 µM. Still for that read-out and setting: for `Cc1ccc(N)nc1` [5-Methylpyridin-2-amine] the value was over 90 µM; for `Cc1cccc2nccnc12` [5-Methylquinoxaline], over 90 µM. On the same count and under the same terms, with `CC(=O)OC(OC(C)=O)c1ccc([N+](=O)[O-])o1` [5-Nitro-2-furanmethanediol diacetate] the figure was 14 µM; with `O=[N+]([O-])c1ccc2c3c(cccc13)CC2` [5-Nitroacenaphthene], over 90 µM; with `O=[N+]([O-])c1ccc2[nH]ncc2c1` [5-Nitroindazole], over 90 µM.

Compound `O=C1Nc2ccc([N+](=O)[O-])cc2C1=O` [5-Nitroisatin] returned a CC50 at 24 h of over 90 µM.

Consider `O=C(O)c1cc(C(=O)O)cc([N+](=O)[O-])c1` [5-Nitroisophthalic acid], for which the CC50 at 24 h was over 90 µM. On the same count and under the same terms, for `c1ccc(-c2nnn[nH]2)cc1` [5-Phenyl-1H-tetrazole] the value was over 90 µM. On the same count and under the same terms, for `C=CC1CC2C=CC1C2` (stereo not shown) [5-Vinyl-2-norbornene] the value was over 90 µM; for `CC1CCc2nccnc21` (stereo not shown) [5H-5-Methyl-6,7-dihydrocyclopenta[b]pyrazine], over 90 µM. Still for that read-out and setting: with `CC(C)c1cccc(C(C)C)c1N1C(=O)c2ccc(O)cc2C1=O` [5HPP-33] the figure was over 90 µM. The compound `C[C@@]12CCC[C@H]1[C@@H]1CC[C@H]3C[C@@H](O)CC[C@]3(C)[C@H]1CC2` [5alpha-Androstan-3beta-ol] registered a CC50 at 24 h of over 50 µM. The same measure, in the same setting: for `COc1cc2nc(O)nc(O)c2cc1OC` [6,7-Dimethoxyquinazoline-2,4(1H,3H)-dione] the value was over 20 µM. Same read-out and setting: with `CC(=O)CC/C=C(\C)CCC=C(C)C` [6,10-Dimethyl-5,9-undecadiene-2-one] the figure was over 90 µM. Same read-out and setting: with `CC(C)c1ccc2ncccc2c1` [6-(1-Methylethyl)quinoline] the figure was over 90 µM; with `CC(=O)c1ccc2c(c1)CCCC2` [6-Acetyl-1,2,3,4-tetrahydronaphthalene], over 90 µM. The compound `Cn1c(N)c(N=O)c(=O)n(C)c1=O` [6-Amino-1,3-dimethyl-5-nitroso-2,4(1H,3H)-pyrimidinedione] registered a CC50 at 24 h of over 90 µM.

Consider `Nc1cc(Cl)cc(S(=O)(=O)O)c1O` [6-Amino-4-chloro-1-phenol-2-sulfonic acid], for which the CC50 at 24 h was over 90 µM. Still for that read-out and setting: with `Nc1ccc2cc(S(=O)(=O)O)cc(O)c2c1` [6-Amino-4-hydroxynaphthalene-2-sulfonic acid] the figure was over 90 µM; with `NCCCCCC(=O)O` [6-Aminocaproic acid], over 20 µM.

For `Nc1ccc2cc(S(=O)(=O)O)ccc2c1` [6-Aminonaphthalene-2-sulfonic acid], the CC50 at 24 h was over 90 µM. Same read-out and setting: for `CC1(C)S[C@@H]2[C@H](N)C(=O)N2[C@H]1C(=O)O` [6-Aminopenicillanic acid] the value was over 20 µM; for `Nc1cnn([C@@H]2O[C@H](CO)[C@@H](O)[C@H]2O)c(=O)n1` [6-Azacytidine], over 90 µM; for `CC(=O)OC[C@H]1O[C@@H](n2ncc(=O)[nH]c2=O)[C@H](OC(C)=O)[C@@H]1OC(C)=O` [6-Azaribine], over 50 µM. The same measure, in the same setting: for `Oc1nc2ccc(Cl)cc2o1` [6-Chloro-2,3-dihydrobenzoxazol-2-one] the value was over 90 µM; for `O=C(O)c1cccc(Cl)n1` [6-Chloro-2-picolinic acid], over 90 µM. Regarding `OCCCCCCCl` [6-Chlorohexan-1-ol], the CC50 at 24 h is over 100 µM. With `Cc1cc(O)c(C(C)C)cc1Cl` [6-Chlorothymol], the CC50 at 24 h is 66.1 µM. The same measure, in the same setting: for `O=C(O)c1ccc2cc(O)ccc2c1` [6-Hydroxy-2-naphthoic acid] the value was over 90 µM; for `Sc1ncnc2nc[nH]c12` [6-Mercaptopurine monohydrate], over 90 µM; for `Cc1ccc2oc(=O)ccc2c1` [6-Methyl coumarin], over 90 µM.

Turning to `Cc1ccc2c(c1)CCCN2` [6-Methyl-1,2,3,4-tetrahydroquinoline], the CC50 at 24 h is over 90 µM. The same measure, in the same setting: with `Cc1nc(N)nc(N)n1` [6-Methyl-1,3,5-triazine-2,4-diamine] the figure was over 90 µM; with `Cc1cc(=O)[nH]c(=S)[nH]1` [6-Methyl-2-thiouracil], over 90 µM. Still for that read-out and setting: for `CC(=O)CCC=C(C)C` [6-Methyl-5-hepten-2-one] the value was over 90 µM; for `Cc1ccc2ncccc2c1` [6-Methylquinoline], over 90 µM.

As to `O=[N+]([O-])c1ccc2[nH]cnc2c1` [6-Nitrobenzimidazole], the CC50 at 24 h is over 90 µM. The same measure, in the same setting: for `O=c1[nH][nH]c(=O)c2cc([N+](=O)[O-])ccc12` [6-Nitrophthalhydrazide] the value was over 90 µM; for `O=[N+]([O-])c1ccc2ncccc2c1` [6-Nitroquinoline], over 90 µM; for `CCCCCc1cccc(=O)o1` [6-Pentyl-2H-pyran-2-one], over 90 µM. Same read-out and setting: for `CCCCCC1CCCC(=O)O1` (stereo not shown) [6-Pentyltetrahydro-2H-pyran-2-one] the value was over 90 µM; for `Nc1nc(N)nc(-c2ccccc2)n1` [6-Phenyl-1,3,5-triazine-2,4-diamine], over 90 µM.

Compound `CCCc1cc(=O)[nH]c(=S)[nH]1` [6-Propyl-2-thiouracil] yielded a CC50 at 24 h of over 90 µM. The same measure, in the same setting: with `Nc1nc2nc[nH]c2c(=S)[nH]1` [6-Thioguanine] the figure was over 90 µM; with `OCCC(F)(F)C(F)(F)C(F)(F)C(F)(F)C(F)(F)C(F)(F)F` [6:2 Fluorotelomer alcohol], over 90 µM.

Still in this data set, the particulars now being: rat, gh3-tre-luc cells, AC50 (uM) modified / 1000, Tox21_110001=Tox21_111056; viability, 1 nM T3 present, 24 h.
`C[C@]12CCC(=O)C[C@@H]1CC[C@@H]1[C@@H]2CC[C@]2(C)[C@@H](O)CC[C@@H]12` [5alpha-Dihydrotestosterone]: the CC50 at 24 h is over 50 µM.

Staying with this data set, now noted: rat, gh3-tre-luc cells, AC50 (uM) modified / 1000, Tox21_110001=Tox21_112880; viability, 1 nM T3 present, 24 h.
On to `COc1ccc2[nH]cc(CCN(C(C)C)C(C)C)c2c1` [5-Methoxy-N,N-diisopropyltryptamine hydrochloride], for which the CC50 at 24 h was over 100 µM.

Still in this data set, the particulars now being: rat, gh3-tre-luc cells, AC50 (uM) modified / 1000, Tox21_110001=Tox21_200987; viability, 1 nM T3 present, 24 h.
As to `C[C@]12CCC(=O)C[C@@H]1CC[C@@H]1[C@@H]2CC[C@]2(C)[C@@H](O)CC[C@@H]12` [5alpha-Dihydrotestosterone], the CC50 at 24 h is over 90 µM.

Still in this data set, the particulars now being: rat, gh3-tre-luc cells, AC50 (uM) modified / 1000, Tox21_110001=Tox21_301256; viability, 1 nM T3 present, 24 h.
Compound `CC(=O)c1cc2c(cc1C)C(C)(C)C(C)CC2(C)C` (stereo not shown) [6-Acetyl-1,1,2,4,4,7-hexamethyltetralin] returned a CC50 at 24 h of 45.6 µM.

The data set is the same for the next values; noted with them: rat, gh3-tre-luc cells, AC50 (uM) modified / 1000, Tox21_110001=Tox21_303655; viability, 1 nM T3 present, 24 h.
On to `C[C@]12CCC(=O)C[C@@H]1CC[C@@H]1[C@@H]2CC[C@]2(C)[C@@H](O)CC[C@@H]12` [5alpha-Dihydrotestosterone], for which the CC50 at 24 h was over 60 µM.
